According to US6642246B1 (priority 1999, dated 2003):

Target: α7 nAChR subtype (Rattus norvegicus, UniProt Q05941)
Type: binding

Chain of α7 nAChR subtype (Q05941 23-502 limits assumed): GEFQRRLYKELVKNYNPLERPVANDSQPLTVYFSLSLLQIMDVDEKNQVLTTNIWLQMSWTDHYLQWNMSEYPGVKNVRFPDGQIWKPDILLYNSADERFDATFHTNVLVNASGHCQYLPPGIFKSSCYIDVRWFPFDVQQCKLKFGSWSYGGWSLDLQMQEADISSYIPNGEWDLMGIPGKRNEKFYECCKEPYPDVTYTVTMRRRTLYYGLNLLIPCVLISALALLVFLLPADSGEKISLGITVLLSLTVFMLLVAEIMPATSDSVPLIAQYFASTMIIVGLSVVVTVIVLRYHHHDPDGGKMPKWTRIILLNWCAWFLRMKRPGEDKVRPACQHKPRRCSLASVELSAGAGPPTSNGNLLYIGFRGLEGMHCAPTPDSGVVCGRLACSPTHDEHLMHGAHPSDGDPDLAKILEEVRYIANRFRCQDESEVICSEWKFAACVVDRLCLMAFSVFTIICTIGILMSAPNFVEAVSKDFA

Substance: ^125I-α-Bungarotoxin [^125I-α-BTX]
- Kd: 1.67 nM
